# Data taken from ChEMBL document CHEMBL3751675, “Characterization of isobutylhydroxyamides with NGF-potentiating activity from Zanthoxylum bungeanum” (Bioorg Med Chem Lett, 2016).
# The source made the active and inactive calls. The rule behind the calls is not given here.
# Assays:
# HCT-116 = assay: Cytotoxicity against human HCT116 cells at 50 uM; type: functional, cell-based
# PC-12 = assay: Stimulation of NGF-induced neurite outgrowth in rat PC12 cells at 20 uM incubated for 48 hrs by phase contrast microscopy; type: functional, cell-based
# [1] = Cytotoxicity against NF1 and p53 deficient mouse glioma cells assessed as growth inhibition at 2 ug/ml after 2 days; type: functional; conditions: Glioma cell, 48 h
# [2] = Cytotoxicity against rat PC12 cells assessed as reduction in cell viability up to 50 uM by MTT assay; type: cell-based; conditions: pc-12
# [3] = Antioxidant activity assessed as DPPH radical scavenging activity at 50 uM; type: physicochemical
# [4] = target: T1, Peroxisome proliferator-activated receptor (Homo sapiens, UniProt P37231+Q07869+Q03181); assay: Activation of PPAR (unknown origin) transactivation expressed in human HepG2 cells assessed as increase in transcriptional activity after 20 hrs by PPRE-luciferase reporter gene assay; type: cell-based
# T1 sequence (P37231 whole entry): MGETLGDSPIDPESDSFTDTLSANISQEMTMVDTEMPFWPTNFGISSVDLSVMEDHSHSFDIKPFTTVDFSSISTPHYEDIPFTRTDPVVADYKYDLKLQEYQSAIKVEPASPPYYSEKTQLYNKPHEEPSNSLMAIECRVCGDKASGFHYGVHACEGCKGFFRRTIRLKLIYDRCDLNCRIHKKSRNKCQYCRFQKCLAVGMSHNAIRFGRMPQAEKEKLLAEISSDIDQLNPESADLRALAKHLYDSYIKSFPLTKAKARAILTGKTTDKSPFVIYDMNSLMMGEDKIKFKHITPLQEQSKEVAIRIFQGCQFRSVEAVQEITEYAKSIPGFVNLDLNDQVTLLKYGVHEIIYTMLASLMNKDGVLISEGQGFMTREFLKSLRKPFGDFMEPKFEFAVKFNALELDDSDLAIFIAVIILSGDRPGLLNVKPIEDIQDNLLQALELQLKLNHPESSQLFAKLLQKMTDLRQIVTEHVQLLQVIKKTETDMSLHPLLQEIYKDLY
# T1 sequence (Q07869 whole entry): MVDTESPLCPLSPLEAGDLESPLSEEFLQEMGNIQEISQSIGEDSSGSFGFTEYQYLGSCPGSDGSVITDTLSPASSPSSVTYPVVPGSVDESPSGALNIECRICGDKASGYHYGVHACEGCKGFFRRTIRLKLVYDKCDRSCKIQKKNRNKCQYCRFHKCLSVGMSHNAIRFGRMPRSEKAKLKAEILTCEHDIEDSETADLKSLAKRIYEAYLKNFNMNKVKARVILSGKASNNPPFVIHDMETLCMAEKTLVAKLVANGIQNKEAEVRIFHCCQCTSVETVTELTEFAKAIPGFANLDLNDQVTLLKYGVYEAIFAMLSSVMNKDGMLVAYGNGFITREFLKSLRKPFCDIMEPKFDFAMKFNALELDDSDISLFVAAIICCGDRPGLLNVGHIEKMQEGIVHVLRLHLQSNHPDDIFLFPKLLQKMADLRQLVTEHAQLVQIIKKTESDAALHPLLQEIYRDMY
# T1 sequence (Q03181 whole entry): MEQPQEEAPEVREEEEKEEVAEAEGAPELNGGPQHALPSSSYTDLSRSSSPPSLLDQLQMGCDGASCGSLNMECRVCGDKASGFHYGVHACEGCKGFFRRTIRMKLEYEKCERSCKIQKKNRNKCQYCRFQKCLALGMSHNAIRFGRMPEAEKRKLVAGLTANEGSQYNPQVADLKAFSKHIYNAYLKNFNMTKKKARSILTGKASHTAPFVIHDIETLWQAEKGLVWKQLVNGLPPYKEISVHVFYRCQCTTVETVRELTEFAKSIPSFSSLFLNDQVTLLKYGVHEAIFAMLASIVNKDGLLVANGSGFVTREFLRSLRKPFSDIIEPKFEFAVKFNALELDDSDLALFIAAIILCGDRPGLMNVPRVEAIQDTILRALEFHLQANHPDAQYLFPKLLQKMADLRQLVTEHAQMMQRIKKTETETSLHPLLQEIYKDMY
# [5] = Cytotoxicity against rat PC12 cells assessed as induction of morphological changes at 20 uM after 48 hrs by phase contrast microscopy in absence of NGF; type: cell-based; conditions: pc-12, 48 h
Activity [3],EC50 [4],SMILES,Activity (HCT-116),Activity (PC-12),inhibition at 2 µg/mL [1],Activity [2],Activity [5]
Not Active,19.1 µM,CC(=O)/C=C/C=C/C(O)CC/C=C/C(=O)NCC(C)(C)O (centres undefined),inactive,Active,52%,Non-toxic,
Not Active,,C[C@H](O)[C@H](O)/C=C/C=C\CC/C=C/C(=O)NCC(C)(C)O,inactive,Active,31%,Non-toxic,Non-toxic
Not Active,,CC(O)/C=C/C=C/C(O)CC/C=C/C(=O)NCC(C)(C)O (centres undefined),inactive,Active,41%,Non-toxic,

# The next lines start with the compound.
SMILES,Activity [3],EC50 [4],Activity (HCT-116),Activity (PC-12),inhibition at 2 µg/mL [1],Activity [2],Activity [5]
CCOC(C)/C=C/C=C/C(O)CC/C=C/C(=O)NCC(C)(C)O (centres undefined),Not Active,,inactive,Active,,Non-toxic,
CC(O)/C=C/C=C/C(=O)C/C=C/C(=O)NCC(C)(C)O (centres undefined),Not Active,,inactive,Active,,Non-toxic,
CCOC(/C=C/C=C/C(C)O)CC/C=C/C(=O)NCC(C)(C)O (centres undefined),,,,,,Non-toxic,
CC(O)/C=C/C=C/C(=O)CC/C=C/C(=O)NCC(C)(C)O (centres undefined),,,,,,Non-toxic,
C[C@H](O)[C@@H](O)/C=C/C=C/CC/C=C/C(=O)NCC(C)(C)O,Not Active,12 µM,inactive,Active,56%,Non-toxic,Non-toxic
